Numbered stars: 1 amine (or outer) side, 2 acyl side, 3 side chain; on linkers, the order of the positions; unused ones are H or OH. Square brackets hold non-standard residues; d marks the D form. Peptide text beside a SMILES is read from it. * marks the point of attachment. ξ: configuration not given here. X1 = C=Cc1c(C)c2cc3nc(c(CC(=O)O)c4nc(cc5[nH]c(cc1[nH]2)c(C)c5CC)C(C)=C4C(=O)O)C(CCC(=O)*)C3C; Dolaproine = CO[C@@H]([C@@H]1CCCN1)[C@@H](C)C(=O)O; ξDil = CC[C@H](C)C([C@@H](CC(=O)[*:2])OC)N(C)[*:1]; Dil = CC[C@H](C)[C@H](NC)[C@@H](CC(=O)O)OC; PABC = O=C(OCc1ccc(N[*:1])cc1)[*:2]; X2 = C[C@@H](N*)[C@@H](O)c1ccccc1; NMeV = CN[C@H](C(=O)O)C(C)C
Assays:
[1] = self-assembled nanoparticle, physiological saline
Experimental: Morphology was observed by transmission electron microscopy (Talos F200X, FEI Company, USA). All the samples were treated with a 1% uranyl acetate solution to obtain negatively stained microscopic images.

SCC7 tumor [2] = experiment: Biodistribution in vivo by NIR fluorescence imaging in tumor animal model; set-up: species or system mouse
Experimental: Near-infrared (NIR) fluorescence imaging was conducted using a real-time optical imaging system in order to evaluate biodistribution in vivo. […]
For the in-vivo experiment, a tumor animal model was prepared by injecting 1×10^6 SCC7 cells into the left flank of a nude mouse.

[3] = 1 mg/kg, tail vein
Experimental: For comparative analysis of pharmacokinetic characteristics in vivo, a tumor animal model was prepared in the same manner as in 9) using C57/BL6 mice instead of BALB/c nude mice.
After the injection, 20 μL of blood was taken from the tail vein of the tumor animal model (C57/BL6) over 12 hours at predetermined time intervals. The blood was immediately diluted to 5-fold with a 0.5 mg/kg low-molecular-weight heparin solution (DMSO:DIW cosolvent). Then, after transferring to a 96-well plate, the fluorescence intensity of the drug in the blood was measured by near-infrared (NIR) fluorescence quantification using a real-time optical imaging system equipped with a 660 nm excitation filter and a 710 nm emission filter. A calibration curve was constructed to analyze the concentration of the drug from the detected fluorescence intensity. The calibration curve was constructed by taking blood from an untreated tumor animal model and adjusting the concentration of the drug in the blood to 10^−8-10^−4.

SCC7 cells [4] = experiment: Trypan blue staining after laser irradiation of a marked area; type: cell-based; conditions: 500 nM, 20 mW/cm^2 for 5 minutes
Experimental: […], SCC7 cells were cultured until 80% confluence on a 60 mm cell culture dish. […] After the incubation was completed, the culture medium was replaced. A laser was irradiated at 20 mW/cm^2 for 5 minutes only onto an area marked with a small circle on the culture dish. Then, the cells were treated with trypan blue for 1 minute.
(§1) The black circles indicate the sites irradiated with the laser.

SCC7 cells [5] = experiment: Cytotoxicity upon exposure to light (CCK-8)
Experimental: Specifically, 1×10^4 cells were seeded onto each well of a 96-well plate and cultured for 24 hours. Then, the cells were incubated with a drug at 500 nM for 6 hours after washing twice with PBS. After removing the culture medium, the cells were irradiated with light at 2.4 J/cm^2. The cells were then incubated for 30 minutes in a medium containing a 10% CCK-8 solution and absorbance was measured at 450 nm using a microplate reader.
as §1

SCC7 tumor [6] = experiment: Antitumor effect in tumor animal model (C3H); conditions: for tumor growth with laser: drug + 671 nm laser 25 mW/cm^2, Ce6 1 mg/kg, CDM 0.25 mg/kg based on MMAE; for damage to other organs (biopsy) / tumor cell killing in H&E biopsy: drug + laser
Experimental: For evaluation of therapeutic effect in vivo, tumor volume was measured for a tumor animal model for 14 days. When the tumor tissue grew to a size of about 80 mm^3, the tumor animal model was evaluated by dividing into 6 groups as follows.
Then, the tumor size was measured every other day.
For histological analysis, tumor tissues and organ tissues were taken from the in-vivo animal model after conducting antitumor growth analysis. The extracted tissues were washed with PBS and fixed with a 4% paraformaldehyde solution. Then, the tissues were stained with H&E (hematoxylin and eosin) and the stained tissues were embedded in paraffin and placed on glass slides after cutting into 4 μm thick slices. After removing paraffin, the tissues were stained with H&E and observed under an optical microscope (BX 51; Olympus, USA). […] The tissues were cut into 10 μm thick slices, freeze-dried and then observed under a confocal laser scanning microscope.
A He—Ne laser (671 nm) was used and the laser was irradiated at 25 mW/cm^2 three times for 10 minutes after the injection of the drug (n=6).

SCC7 cells [7] = experiment: Cytotoxicity in vitro (CCK-8), with or without caspase-3; type: cell-based; conditions: for effect on tumor cells at 10 nM without caspase-3: not activated by caspase-3 / alone
Experimental: The cytotoxicity of a drug was evaluated by a colorimetric assay using the cell counting kit-8 (CCK-8; Dojindo Molecular Technologies, Inc., USA). […] After removing the culture medium, the plate was washed twice with PBS.

[8] = self-assembled nanoparticle, DPBS 0.1 mg/mL
Experimental: Molecular structure was investigated with ChemBioDraw Ultra 12.0 (Cambridge Soft Corporation), PyMOL 1.7.0.1 (DeLano Scientific) or Discovery Studio 4.0. […] Hydrodynamic size and distribution were measured by dynamic light scattering (SZ-100, Horiba, Ltd., Japan) using a 532 nm DPSS laser.

[9] = pyrene method
Description: Next, emission spectra were obtained at 372 nm and 383 nm using a spectrophotometer (F-7000, Hitachi High-Technologies Corporation, Japan) with an excitation wavelength of 340 nm. […] Fluorescence images were obtained at excitation (660 nm) and emission (710 nm) wavelengths.

SCC7 tumor [10] = system: SCC7 tumor
Experimental: In order to conduct an in-vivo animal experiment, 5-week-oil BALB/c nude mouse mice were used as an allograft tumor animal model (BALB/c). The tumor animal model (BALB/c) was prepared by preparing a cell suspension containing 1×10^6 SCC7 cells and 80 μL of a medium and injecting it into the thighbone at the flank of the BALB/c nude mouse where the effect of respiratory movement is little. Then, the mice were bred for about 8 days until the tumor grew to a size of about 80 mm^3.
The tumor animal model prepared by administering various drugs as described in 9) was subjected to photodynamic therapy and the expression level of caspase-3 in vivo was monitored. For this, NIR fluorescence images were obtained using a probe which is activated by specifically reacting with caspase-3 (Cas3p; Cy5-GDEVD-BHQ3).
After 3 hours, Cas3p was injected and its biodistribution was measured using an excitation filter (640 nm) and an emission filter (710 nm).
First, in order to clarify the stimulation-specific therapeutic effect for a tumor animal model, the same tumor tissue was transplanted into different parts (left and right sides) of the same animal model and the two tumor tissues were compared.
A tumor animal model (Balb/c nu/nu) was prepared as described above in Materials and methods 9).

SCC7 cells [11] = conditions: 50 μg/mL
Experimental: Experiments were conducted using SCC7 cells as follows. Specifically, the cells were cultured in a medium containing 10% fetal bovine serum (FBS) and 1% antibiotic using a 5% CO2 incubator at 37 C. […] After the incubation was completed, the cells were washed and fixed with a 2% paraformaldehyde solution. Then, the cells were stained with 4,6-diamidino-2-phenylindole (DAPI, Invitrogen, USA).

caspase-3 [12] = conditions: 500 nM, CDM + laser
Experimental: Caspase-3 colorimetric assay and western blot were conducted to quantify enzyme expression. First, SCC7 cells were cultured on a 100 mm^2 cell culture dish until 70% confluence and further cultured for 6 hours after adding a drug (500 nM). After replacing the medium, light was irradiated with 20 mW/cm^2 for 5 minutes. After culturing further for 3 hours, the cells were recovered for analysis of caspase-3. For immunoblotting assay, the cells were treated with anti-cleaved caspase-3 antibody (1:650) and anti-PARP antibody (1:1000) purchased from Cell Signaling Technology (Danvers, Mass.) as primary antibodies and then treated with HRP-conjugated anti-rabbit IgG and anti-mouse IgG (1:1000; R&D Systems) as secondary antibodies. The blotted membrane was analyzed with a chemiluminescence imager (LAS-3000; Fuji Photo Film, Japan). Colorimetric assay of caspase-3 was conducted using a microplate reader (VERSAmaxTM, Molecular Devices Corp., USA) and a caspase-3 assay kit (Abcam, Cambridge, MA) according to the manufacturer's instructions.

[13] = Solubility in water, PBS and physiological saline; type: physicochemical; conditions: for solubility in water: dissolved in water alone
[14] = physiological saline
SCC7 cells [15] = conditions: SCC7 cells incubated with CDM, laser irradiation
Experimental: The apoptosis of the fixed cells was measured using an annexin V-FITC apoptosis detection kit (Sigma-Aldrich Co., USA). […] Then, the light-irradiated cells were treated with trypsin and stained for 30 minutes with FITC-annexin V and propidium iodide (PI) according to the manufacturer's instructions. The fluorescence images of the stained cells were obtained using a confocal laser scanning microscope (Leica TCS SP8; Leica Microsystems, Germany).

[16] = Toxicity in vivo in tumor animal model (C3H); set-up: species or system mouse; number of neutrophils: unit not given here; conditions: for change in number of total white blood cells (WBCs): 0.5 mg/kg (CDM based on MMAE concentration); for change in body weight: 50, 200, 500 μg/kg (CDM based on MMAE concentration); for survival rate: CDM 0.25 mg/kg based on MMAE, Ce6 1 mg/kg group
Experimental: The body weight change of the tumor animal model was measured every day after treatment with the drug. […] All the blood samples were stored at 4° C. and analyzed within a day in SCL (Seoul Clinical Laboratories, Korea).
First, a tumor animal model was prepared by transplanting SCC7 tumor cells into a C3H mouse. Details are described above in Materials and methods.
6 groups were prepared as follows by injecting drugs into the tail vein of the tumor animal model. […] The total treatment period was 14 days.

caspase-3 [17] = molecular target: caspase-3 (Homo sapiens, UniProt P42574)
Chain of caspase-3 (Homo sapiens, UniProt P42574) (P42574 29-175 limits assumed, species assumed): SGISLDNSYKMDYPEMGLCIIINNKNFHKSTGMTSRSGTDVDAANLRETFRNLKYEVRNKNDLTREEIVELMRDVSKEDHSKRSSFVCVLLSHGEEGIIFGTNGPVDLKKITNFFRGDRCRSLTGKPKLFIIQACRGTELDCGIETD
Chain of caspase-3 (Homo sapiens, UniProt P42574) (P42574 176-277 limits assumed, species assumed): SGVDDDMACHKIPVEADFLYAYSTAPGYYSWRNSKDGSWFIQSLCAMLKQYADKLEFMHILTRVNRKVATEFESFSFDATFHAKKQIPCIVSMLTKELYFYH
Experimental: Finally, the mixture solution was analyzed by RP-HPLC (Agilent 1200 series, Agilent Technology, USA) equipped with a UV detector.

In the case of `C=Cc1c(C)c2cc3nc(c(CC(=O)O)c4nc(cc5[nH]c(cc1[nH]2)c(C)c5CC)C(C)=C4C(=O)O)C(CCC(=O)NCCCC[C@H](NC(C)=O)C(=O)NCC(=O)N[C@@H](CC(=O)O)C(=O)N[C@@H](CCC(=O)O)C(=O)N[C@H](C(=O)N[C@@H](CC(=O)O)C(=O)Nc1ccc(COC(=O)N(C)[C@H](C(=O)N[C@H](C(=O)N(C)C([C@@H](C)CC)[C@@H](CC(=O)N2CCC[C@H]2[C@H](OC)[C@@H](C)C(=O)N[C@H](C)[C@@H](O)c2ccccc2)OC)C(C)C)C(C)C)cc1)C(C)C)C3C` (stereo partly shown) [CDM, Ce6-(Ac)KGDEVD-PABC-MMAE] (Ac-K(X1)GDEVD[PABC][NMeV]V[ξDil][Dolaproine]-X2), the “average diameter (TEM images)” value [1] is reported as “about 52.6±20.0 nm”, the “fluorescence intensity in organs and tumor 24 hours after injection” value (SCC7 tumor [2]; liver, lung, spleen, kidney, heart and tumor tissues) is reported as “high” and the “fluorescence intensity in the tumor tissue relative to Ce6-injected model” value (SCC7 tumor [2]; mouse, in vivo) is reported as 12.8-4.2. For the same compound, the “time of highest fluorescence intensity in the tumor” value (SCC7 tumor [2]; tail vein injection) was 6 to 12 h, the “blood level at first” value [3] was “higher than that of Ce6” and the “cells killed after laser irradiation of a marked area” value (SCC7 cells [4]) was “nearby cells were also killed effectively”. The cell viability (SCC7 cells [5]; 500 nM, light irradiated from outside (laser (+))) was 12.8±9.2%, the “cytotoxic effect compared to when the drugs are used alone” value (SCC7 cells [5]; after external stimulation (light irradiation or caspase-3)) was at least 2 time and the “tumor size with time, no laser” value (SCC7 tumor [6]; CDM group, laser not irradiated) was “no change in tumor size”. For the same compound, the “tumor weight decrease compared to the CDM group and the laser group” value (SCC7 tumor [6]; CDM+laser group) was 99.6%, the “tumor growth with laser” value (SCC7 tumor [6]) was “no tumor growth” and the “damage to other organs (biopsy)” value (SCC7 tumor [6]) was “no damage to other organs”. The “tumor cell killing in H&E biopsy” value (SCC7 tumor [6]) was “killed extensively”, the “tumor cell growth (cell viability, CCK)” value (SCC7 cells [7]; 10 nM in combination with caspase-3) was 50.1% and the “effect on tumor cells at 10 nM without caspase-3” value (SCC7 cells [7]) was “little effect”. For the same compound, the cell survival rate (SCC7 cells [7]; 50 nM in the presence of caspase-3) was 42.5%, the cell survival rate (SCC7 cells [7]; 200 nM in the presence of caspase-3) was 32.5% and the cell survival rate (SCC7 cells [7]; 600 nM in the presence of caspase-3) was 25.5%. The “average diameter (hydrodynamic, DLS)” value [8] was 90.8±18.9 nm, the “critical micelle concentration (CMC)” value [9] was “about 1.382 μM” and the “growth of left-side vs right-side (laser) tumor” value (SCC7 tumor [10]; 0.5 mg/kg, 15 days) was “distinct difference in the growth of the left-side and right-side tumors”. The “caspase-3 probe (Cy5-GDEVD-BHQ3) fluorescence in tumors” value (SCC7 tumor [10]; CDM i.v., laser on right-side tumor only) was “observed only in the right-side tumor”, the “time to accumulation in the cells in an enough amount” value (SCC7 cells [11]) was at most 3 h and the “intracellular caspase-3 level (western blot)” value (caspase-3 [12]) was “increased the intracellular concentration of caspase-3”. The solubility ([13]; water, PBS and physiological saline) was “dissolves well in all of water, PBS and physiological saline”, the “average diameter (SEM)” value [14] was 50-200 nm and the “apoptosis induction on light irradiation” value (SCC7 cells [15]) was “can induce apoptosis even with a small quantity of light”. For the same compound, the “change in number of total white blood cells (WBCs)” value [16] was “no change”, the number of neutrophils ([16]; 0.5 mg/kg based on MMAE concentration) was 1.6±1.0000 and the “change in body weight” value [16] was 4.8±0.2%. For the same compound, the survival rate [16] was 100%, the “time to effective activation by caspase-3” value (caspase-3 [17]; 10 μM CDM, 500 ng/mL caspase-3, 37° C.) was at most 2 h and the “activation by caspase-3 in presence of caspase-3 inhibitor (Z-DEVD-FMK)” value (caspase-3 [17]; incubation for 2 hours) was “not completely activated”.
For `CC[C@H](C)[C@@H]([C@@H](CC(=O)N1CCC[C@H]1[C@H](OC)[C@@H](C)C(=O)N[C@H](C)[C@@H](O)c1ccccc1)OC)N(C)C(=O)[C@@H](NC(=O)[C@@H](NC)C(C)C)C(C)C` [MMAE, monomethyl auristatin E] (H-[NMeV]V[Dil][Dolaproine]-X2), the cell viability (SCC7 cells [5]; treated with MMAE only) was 25.8±10.1%, the “outcome of group during the antitumor experiment” value (SCC7 tumor [6]; MMAE 0.25 mg/kg only) was “died during the experiment because of too strong toxicity” and the solubility in water [13] was “water insolubility”. The “increase in plasma ALT” value ([16]; 0.5 mg/kg) was 1.5 times, the “increase in plasma AST” value ([16]; 0.5 mg/kg) was 2.7 times and the “neutrophils, times less as compared to the saline group” value ([16]; 0.5 mg/kg) was 4.9 times. For the same compound, the “percentage of the neutrophils to the total white blood cells” value ([16]; 0.5 mg/kg) was 2.5±1.4%, the “change in number of total white blood cells (WBCs)” value [16] was 35.7±13.8% and the “change in body weight” value [16] was 31.6±2.2%. For the same compound, the “day on which all were killed” value ([16]; MMAE 0.25 mg/kg) was 4 days, the “day on which group began to die” value ([16]; MMAE 0.25 mg/kg) was 3 days and the “size of lymphocytes (lymphoid tissue; white pulp) in spleen” value ([16]; MMAE group) was “significantly decreased”. For the same compound, the spleen weight decrease ([16]; MMAE group) was 75±11.8% and the body weight decrease ([16]; MMAE group, 0.25 mg/kg) was 31.9±1.6%.
For Chlorin e6 [Ce6, reference compound], the “fluorescence in the tumor tissue” value (SCC7 tumor [2]; tail vein injection) was “hardly detected”, the “cells killed after laser irradiation of a marked area” value (SCC7 cells [4]) was “only the cells treated with a laser were killed” and the “tumor growth with laser” value (SCC7 tumor [6]) was “tumor growth-inhibiting effect”. The “damage to other organs (biopsy)” value (SCC7 tumor [6]) was “no damage to other organs”, the “tumor cell killing in H&E biopsy” value (SCC7 tumor [6]) was “very insignificant” and the “effect on tumor cells at 10 nM without caspase-3” value (SCC7 cells [7]) was “no effect”. The solubility in water [13] was “water insolubility” and the survival rate [16] was 100%.

— patent US20190201538A1, “TUMOR-TARGETING PHOTOSENSITIZER-DRUG CONJUGATE, METHOD FOR PREPARING SAME AND PHARMACEUTICAL COMPOSITION FOR PREVENTING OR TREATING TUMOR CONTAINING SAME” (KOREA INSTITUTE OF SCIENCE AND TECHNOLOGY, priority 2018, published 2019)
